Values quoted from earlier work in patent publication US4340609A, “Amidinourea derivative veterinary compositions for suppression of parasitemia” (William H. Rorer, Inc., priority 1980, dated 1982).

System: P. berghei
Conditions: cited from earlier work

| Structure (SMILES) | excretion from the host body (P. berghei infected mice, single muscular injection) | effect in P. berghei infected mice (single muscular injection) | resistance of P. berghei (P. berghei) |
| --- | --- | --- | --- |
| CC1(C)N=C(N)N=C(N)N1c1ccc(Cl)cc1 [chloroguanide triazine pamoate] | not excreted rapidly from the host body | good and lasting effects | – |
| CCc1nc(N)nc(N)c1-c1ccc(Cl)cc1 [pyrimethamine] | – | – | resistant |
